From US20110093959A1, “CRYPTOTIS PARVA SCREENING MODEL FOR ANTIEMETIC POTENTIAL” (priority 2008, published 2011)

Tested on: CIS-induced emesis in the Least Shrew
Test: Tropisetron, Δ^9-THC and dexamethasone alone or in combination against CIS (20 mg/kg)-induced emesis, 60 min
Assay type: in vivo, Cryptotis parva
Method: Briefly, all animals were randomly divided into two groups. On the test day, shrews were habituated to the laboratory environment for at least 1 hr prior to experimentation. […] All drugs were administered at a volume of 0.1 ml/10 g body weight. Immediately following the second injection, each shrew was placed in the observation cage, and both the number of animals vomiting per group and the frequency of vomiting (oral ejections of food or liquid) were recorded for the next 60 min
Poisson regression and logistic regression analyses were employed for two-way analysis of vomiting frequency and protection from emesis, respectively. […] Data regarding the frequency of emesis were analyzed by the Kruskal-Wallis nonparametric one-way analysis of variance (ANOVA), and post hoc analysis by Dunn's multiple comparisons test. The incidence of emesis (number of animals vomiting) was analyzed by Fisher's exact test to determine whether there were differences between groups, and when appropriate, pairwise comparisons were also made. A p value of<0.05 was necessary to achieve statistical significance.

[1] = 1 mg/kg i.p., administered alone
[2] = 5 mg/kg i.p., administered alone
[3] = tropisetron 0.1 mg/kg with 0.5 mg/kg Δ^9-THC
[4] = tropisetron 0.25 mg/kg with 0.25 mg/kg Δ^9-THC
[5] = tropisetron 0.25 mg/kg with 0.5 mg/kg Δ^9-THC
[6] = tropisetron 1 mg/kg with 0.1 mg/kg Δ^9-THC
[7] = tropisetron 1 mg/kg with 0.25 mg/kg Δ^9-THC
[8] = tropisetron 1 mg/kg with 0.5 mg/kg Δ^9-THC
[9] = tropisetron 5 mg/kg with 0.1 mg/kg Δ^9-THC
[10] = tropisetron 5 mg/kg with 0.25 mg/kg Δ^9-THC
[11] = tropisetron 5 mg/kg with 0.5 mg/kg Δ^9-THC

CN1[C@@H]2CC[C@H]1C[C@@H](OC(=O)c1c[nH]c3ccccc13)C2 [tropisetron]
reduction in frequency of CIS-induced emesis (0.25 mg/kg i.p., administered alone): 79%
reduction in frequency of CIS-induced emesis [1]: 94%
reduction in percentage of shrews vomiting in response to CIS [1]: 75%
reduction in frequency of CIS-induced emesis [2]: 99.8%
reduction in percentage of shrews vomiting in response to CIS [2]: 92%
reduction in number of shrews vomiting, over tested doses (drug by itself, dose-dependent): completely protected
reduction in frequency of CIS-induced emesis (tropisetron 0.025 mg/kg with 0.25 mg/kg Δ^9-THC): 60%
reduction in frequency of CIS-induced emesis (tropisetron 0.1 mg/kg with 0.25 mg/kg Δ^9-THC): 59.8%
reduction in frequency of CIS-induced emesis [3]: 57.5%
reduction in percentage of shrews vomiting in response to CIS [3]: 58%
reduction in frequency of CIS-induced emesis (tropisetron 0.25 mg/kg with 0.1 mg/kg Δ^9-THC, vs 0 mg/kg tropisetron): 88%
reduction in frequency of CIS-induced emesis [4]: 84%
reduction in percentage of shrews vomiting in response to CIS [4]: 50%
reduction in frequency of CIS-induced emesis [5]: 70%
reduction in percentage of shrews vomiting in response to CIS [5]: 50%
reduction in frequency of CIS-induced emesis [6]: 90.6%
reduction in percentage of shrews vomiting in response to CIS [6]: 78%
reduction in frequency of CIS-induced emesis [7]: 100%
reduction in percentage of shrews vomiting in response to CIS [7]: 100%
reduction in frequency of CIS-induced emesis [8]: 70.1%
reduction in percentage of shrews vomiting in response to CIS [8]: 83%
reduction in frequency of CIS-induced emesis [9]: 89.4%
reduction in percentage of shrews vomiting in response to CIS [9]: 71%
reduction in frequency of CIS-induced emesis [10]: 93%
reduction in percentage of shrews vomiting in response to CIS [10]: 70%
reduction in frequency of CIS-induced emesis [11]: 69.8%
reduction in percentage of shrews vomiting in response to CIS [11]: 58%
effect on frequency of CIS-induced vomiting (tropisetron, all doses, combined with 1 mg/kg or 5 mg/kg Δ^9-THC): None of the cited doses of tropisetron had a significant effect
effect on percentage of shrews vomiting (tropisetron, any dose, with 1 mg/kg and 5 mg/kg Δ^9-THC): no dose of tropisetron significantly altered
